Values belong to the compound of their own block, whether it stands above or below them.
What was measured:
[1] = species: Homo sapiens; assay: cells
[2] = Inhibitory activity
[3] = target: Nitric oxide synthase, inducible (Homo sapiens, UniProt P35228); assay: Binding against the partially purified human Inducible nitric oxide synthase
[4] = tested on: Rattus norvegicus; assay: The compound was tested in vivo for suppressing LPS-stimulated plasma NOx production in rats; type: functional
[5] = target: Phosphodiesterase 1 (Homo sapiens, UniProt P54750+Q01064+Q14123); assay: Inhibition of calmodulin-dependent PDE(3',5'-phosphodiesterase); type: functional
[6] = tested on: CHO; assay: Inhibition of [125I]RANTES association with CCR5 expressed in CHO cells at 100 nM; type: functional, cell-based; conditions: Cricetulus griseus
[7] = species: Oryctolagus cuniculus; assay: Inhibition of the absorption of dentine slices by rabbit osteoclasts; type: functional
[8] = target: T1, Proto-oncogene tyrosine-protein kinase Src (Homo sapiens, UniProt P12931); assay: Inhibition of Src protein tyrosine kinase
[9] = Inhibition of Interleukin-1 alpha binding to Interleukin-1 receptor
[10] = target: Apoptosis regulator Bcl-2 (Homo sapiens, UniProt P10415); assay: Inhibitory activity against Bcl-2 functioning; type: functional
[11] = tested on: HL-60; assay: Percent cell death of cultured HL60 human leukemia cells at dose of 50 uM; type: functional
[12] = target: T2, High affinity nerve growth factor receptor (Homo sapiens, UniProt P04629); assay: Inhibition of NGF-stimulated Trk A in PC12 cells; type: cell-based, PC-12
[13] = target: T2, High affinity nerve growth factor receptor; assay: Inhibition of NGF-stimulated Trk A
[14] = target: T3, Tumor necrosis factor receptor superfamily member 16 (Homo sapiens, UniProt P08138); assay: Competitive binding against Nerve growth factor to p75-NGF receptor in PC12 cells; type: cell-based, PC-12
T3 sequence (P08138 whole entry): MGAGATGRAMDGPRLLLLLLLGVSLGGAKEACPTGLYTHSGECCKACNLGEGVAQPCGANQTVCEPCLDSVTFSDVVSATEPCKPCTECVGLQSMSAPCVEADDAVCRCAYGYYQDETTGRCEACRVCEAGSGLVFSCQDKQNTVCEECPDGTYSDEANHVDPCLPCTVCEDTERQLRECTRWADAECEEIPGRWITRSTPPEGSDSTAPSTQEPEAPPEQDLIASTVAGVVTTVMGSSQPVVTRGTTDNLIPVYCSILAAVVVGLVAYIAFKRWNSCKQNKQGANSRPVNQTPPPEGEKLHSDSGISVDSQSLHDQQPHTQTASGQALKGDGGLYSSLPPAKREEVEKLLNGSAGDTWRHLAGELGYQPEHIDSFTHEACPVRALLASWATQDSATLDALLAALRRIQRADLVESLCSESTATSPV

[15] = Selective inhibition of Src SH2 domain over ZAP-70 SH2 domain; type: functional
[16] = Inhibition of thyroid-hormone induced bone resorption; type: functional
[17] = target: T1, Proto-oncogene tyrosine-protein kinase Src; assay: Inhibition of binding to Src SH2 domain; type: functional
[18] = target: T4, Growth factor receptor-bound protein 2 (Homo sapiens, UniProt P62993); assay: Inhibition of c-Met interaction with Grb2 SH2 domain in Okajima (human gastric carcinoma) cells at 30 nM; type: functional; conditions: Stomach
[19] = target: T4, Growth factor receptor-bound protein 2; assay: Inhibition of Growth factor receptor bound protein 2 SH2-domain binding

T2 sequence (P04629 whole entry): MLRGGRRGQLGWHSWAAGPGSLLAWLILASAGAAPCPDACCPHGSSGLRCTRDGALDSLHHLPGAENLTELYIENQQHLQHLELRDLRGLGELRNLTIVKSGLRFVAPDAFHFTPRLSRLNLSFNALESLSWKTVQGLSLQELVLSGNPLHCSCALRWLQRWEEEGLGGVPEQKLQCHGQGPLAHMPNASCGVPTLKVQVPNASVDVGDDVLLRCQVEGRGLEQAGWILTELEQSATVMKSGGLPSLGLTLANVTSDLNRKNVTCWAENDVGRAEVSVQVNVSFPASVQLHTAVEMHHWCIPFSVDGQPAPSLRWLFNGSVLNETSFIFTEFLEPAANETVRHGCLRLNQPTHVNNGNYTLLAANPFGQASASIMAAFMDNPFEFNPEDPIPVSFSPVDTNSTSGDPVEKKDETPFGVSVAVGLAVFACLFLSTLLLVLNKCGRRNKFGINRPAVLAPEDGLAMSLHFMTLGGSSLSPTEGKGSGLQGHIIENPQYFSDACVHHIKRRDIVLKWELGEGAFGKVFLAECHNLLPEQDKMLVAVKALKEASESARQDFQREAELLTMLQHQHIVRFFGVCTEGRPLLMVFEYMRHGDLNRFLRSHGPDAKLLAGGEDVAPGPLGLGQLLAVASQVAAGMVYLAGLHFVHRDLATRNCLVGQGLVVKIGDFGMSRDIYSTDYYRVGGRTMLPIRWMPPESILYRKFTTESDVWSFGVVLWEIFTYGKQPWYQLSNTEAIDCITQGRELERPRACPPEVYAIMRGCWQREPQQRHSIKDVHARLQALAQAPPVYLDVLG
T1 sequence (P12931 2-536 limits assumed): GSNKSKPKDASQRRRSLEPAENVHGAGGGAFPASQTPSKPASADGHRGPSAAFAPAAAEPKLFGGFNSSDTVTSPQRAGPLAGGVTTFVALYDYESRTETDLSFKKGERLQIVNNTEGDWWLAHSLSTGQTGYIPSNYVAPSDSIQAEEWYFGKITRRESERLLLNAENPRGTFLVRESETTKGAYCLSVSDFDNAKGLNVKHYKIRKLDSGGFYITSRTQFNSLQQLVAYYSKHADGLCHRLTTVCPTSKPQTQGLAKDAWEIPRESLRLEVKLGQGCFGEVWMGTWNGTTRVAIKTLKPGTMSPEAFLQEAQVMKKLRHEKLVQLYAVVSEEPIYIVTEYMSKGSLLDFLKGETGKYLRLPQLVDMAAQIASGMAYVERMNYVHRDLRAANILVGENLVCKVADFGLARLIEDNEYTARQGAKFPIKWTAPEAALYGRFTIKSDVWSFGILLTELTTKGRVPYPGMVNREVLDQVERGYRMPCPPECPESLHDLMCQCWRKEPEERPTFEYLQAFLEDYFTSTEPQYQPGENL
Nitric oxide synthase, inducible, sequence (P35228 whole entry): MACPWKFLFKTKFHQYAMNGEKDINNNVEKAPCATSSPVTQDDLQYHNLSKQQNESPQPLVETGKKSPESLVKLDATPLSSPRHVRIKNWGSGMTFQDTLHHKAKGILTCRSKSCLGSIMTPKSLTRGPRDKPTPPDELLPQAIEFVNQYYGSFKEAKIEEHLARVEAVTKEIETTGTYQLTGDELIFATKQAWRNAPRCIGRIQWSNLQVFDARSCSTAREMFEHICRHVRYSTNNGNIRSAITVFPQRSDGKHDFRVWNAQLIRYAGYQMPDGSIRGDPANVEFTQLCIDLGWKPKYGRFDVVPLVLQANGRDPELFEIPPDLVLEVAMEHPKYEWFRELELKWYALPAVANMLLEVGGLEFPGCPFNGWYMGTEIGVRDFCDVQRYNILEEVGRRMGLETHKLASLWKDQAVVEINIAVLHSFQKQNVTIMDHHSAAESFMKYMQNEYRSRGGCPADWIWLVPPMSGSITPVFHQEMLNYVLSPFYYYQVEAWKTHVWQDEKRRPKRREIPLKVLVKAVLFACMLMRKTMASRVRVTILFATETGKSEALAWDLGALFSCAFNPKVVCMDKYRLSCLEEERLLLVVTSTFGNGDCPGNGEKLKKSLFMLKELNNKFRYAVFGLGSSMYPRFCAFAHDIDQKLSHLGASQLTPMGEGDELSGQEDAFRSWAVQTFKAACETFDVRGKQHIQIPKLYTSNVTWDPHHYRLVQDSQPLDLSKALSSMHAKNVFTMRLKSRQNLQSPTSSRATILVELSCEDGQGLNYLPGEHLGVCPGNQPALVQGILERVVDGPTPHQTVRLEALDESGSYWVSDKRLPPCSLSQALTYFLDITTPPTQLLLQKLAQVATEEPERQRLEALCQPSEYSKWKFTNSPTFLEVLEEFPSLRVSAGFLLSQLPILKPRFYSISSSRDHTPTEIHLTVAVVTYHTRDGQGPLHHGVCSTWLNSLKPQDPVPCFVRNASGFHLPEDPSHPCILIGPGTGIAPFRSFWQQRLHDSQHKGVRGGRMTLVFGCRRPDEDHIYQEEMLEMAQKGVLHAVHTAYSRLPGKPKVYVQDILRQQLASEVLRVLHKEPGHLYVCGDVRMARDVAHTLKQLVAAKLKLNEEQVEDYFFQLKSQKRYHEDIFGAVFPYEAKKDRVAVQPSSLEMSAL
Apoptosis regulator Bcl-2, sequence (P10415 whole entry): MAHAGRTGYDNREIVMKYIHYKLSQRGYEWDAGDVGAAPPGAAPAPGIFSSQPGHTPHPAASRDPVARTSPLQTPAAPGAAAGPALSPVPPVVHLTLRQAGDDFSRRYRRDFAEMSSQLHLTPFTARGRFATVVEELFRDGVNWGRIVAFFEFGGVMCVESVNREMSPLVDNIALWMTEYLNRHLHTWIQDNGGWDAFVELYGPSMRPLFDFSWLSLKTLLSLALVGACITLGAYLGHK

IC50 [5]: 9 nM
SMILES: CCc1cc(-c2ccc(OCC(=O)O)cc2C(C)C)ccc1-c1cccc(Cc2cccc3ccccc23)c1

IC50 [2]: 1.1 nM
SMILES: O=C(CC1CNCCN1c1cc(Cl)nc(-n2ccnc2)n1)NCc1ccc2c(c1)OCO2 (stereo not drawn)

IC50 [9]: < 10000 nM
SMILES: CCCCCCOc1ccc(CCOc2cc(OCCCN)ccc2C(=O)NC(c2ccccc2)c2ccccc2)cc1

IC50 [5]: 20 nM
SMILES: CCc1cc(-c2ccc(OCC(=O)O)cc2C(C)C)ccc1-c1cccc(Cc2ccc3ccccc3c2)c1

IC50 [9]: < 10000 nM
SMILES: CCCCCCOc1cccc(CCOc2cc(OCCCN)ccc2C(=O)NC2c3ccccc3-c3ccccc32)c1

IC50 [12]: 3720 nM
IC50 [13]: 5880 nM
SMILES: O=C1c2cccc3cc([N+](=O)[O-])cc(c23)C(=O)N1NCCO
IC50 [14]: 3720 nM

IC50 [15]: 60000 nM
IC50 [16]: 42900 nM
IC50 [17]: 5500 nM
SMILES: CC(=O)NC(Cc1ccc(C(=O)O)c(C=O)c1)C(=O)N[C@H]1CCCCc2cc(OCC3CCCCC3)c(C(N)=O)cc21 (stereo partly drawn)

Blockade [18]: 50%
IC50 [19]: 50 nM
SMILES: NC(=O)C[C@H](NC(=O)C1(NC(=O)[C@H](Cc2ccc(C(C(=O)O)C(=O)O)cc2)NC(=O)C(=O)O)CCCCC1)C(=O)NCCCc1ccc2ccccc2c1

Continued, compound first:

SMILES: CC(=O)N[C@@H](Cc1ccccc1)C(=O)N[C@H]1CCCNC(=O)[C@H](CCCN=C(N)N)NC(=O)[C@H](Cc2c[nH]c3ccccc23)NC(=O)[C@@H](CC2CCCCC2)NC(=O)[C@@H]2CCCN2C1=O
IC50 [1]: 20 nM

SMILES: COC(=O)N1CCN(c2ccnc(-n3ccnc3)n2)C(CC(=O)NCc2ccc3c(c2)OCO3)C1 (stereo not drawn)
IC50 [2]: 0.6 nM
Ki [3]: 2.2 nM
ED50 [4]: 1.2 mg/kg

SMILES: Cc1ccc(-c2ccc3c(c2)C=C(C(=O)Nc2ccc(C[N+](C)(C)C4CCOCC4)cc2)CCC3)cc1
IC50 [6]: 1.4 nM

SMILES: CC(=O)NC(Cc1ccc(P(=O)(O)O)c(P(=O)(O)O)c1)C(=O)N[C@H]1CCCCc2cc(OCC3CCCCC3)c(C(N)=O)cc21 (stereo partly drawn)
IC50 [7]: 1600 nM
IC50 [8]: 300 nM

SMILES: NCCc1ccc(OCCCN=C(N)N)cc1OCCc1ccccc1
IC50 [9]: 770000 nM

SMILES: CCSCCCCC(c1ccc(O)cc1)C(C)(CC)c1ccc(O)cc1 (stereo not drawn)
IC50 [10]: ~9000 nM
Cell death [11]: >90%
